Results as given in PMC10541198, “Specific quinone reductase 2 inhibitors reduce metabolic burden and reverse Alzheimer’s disease phenotype in mice” (The Journal of Clinical Investigation, 2023).
Where “and” joins values, the source holds several entries; their conditions need not be identical. Equal entries are not always repeated.

Columns and labels:
QR2Δ HCT116 cells = assay: H2DCFDA detection of cellular ROS in QR2 KO cells; format: cell-based, human; details: 20 μM, 3 hour
Description: To establish direct target engagement and cell membrane permeability, a cellular thermal shift assay (CETSA) was carried out, using leading QR2is YB’s-537, 800, and 808. Following a 1 hour preincubation with 5 μM of the QR2is or vehicle, thermal aggregation curves (Taggs) of QR2 expressed in HEK293T were measured in increasing temperatures. All QR2is increased QR2 thermal stability compared with vehicle (Supplemental Figure 2A). Based on the Tagg curves we selected 73°C for isothermal dose-response fingerprint (IDTRF) experiments (Supplemental Figure 2B). The ITDRF allowed the relative quantification of the binding of each of the QR2is to QR2, measured as the EC50 (Figure 3A). […] We evaluated the safety of the QR2is using cell toxicity and viability assays. […] Cell viability was assessed by XTT assay in HEK239T cells, using a dose response, with 3- or 24-hour incubations of the leading QR2is. […] We then assessed WT HCT116 cells by immunoblot (Supplemental Figure 2, C and D), after being treated with YB-800 (2 μM) for 4 consecutive days. […]
The cells wer e har ves t ed a nd resuspended in 1% cl ear m e di um ( DM EM – with no phenol red, suppl em ent ed with 1% FBS, 1% L-Glutamine and 1% Penicillin-Streptomycin). […] The plate wa s then incubated in the dark at 37°C f or 3 h, before reading in a Tecan M200 Pro florescence microplate reader, using wavelengths Ex/Em = 485 nm / 535 nm . […]

4-HNE = assay: Immunoblot of 4-HNE 3 hours after CA1 microinjection; format: in vivo, mouse
Description: In order to evaluate the efficacy of some of the leading QR2is in vivo, we carried out double-blind experiments using 2 different modalities (Supplemental Methods), measuring memory that is dependent on different brain areas. First, cortical memory was tested using incidental novel taste learning (see Methods), in which an unfamiliar, but palatable and safe, taste is given for the first time, and the memory for this newly learned taste is then assessed 2 days later. This is done by measuring the volume of the taste consumed upon subsequent exposure to it ([32]) (Figure 4A). […] Next, hippocampal-dependent learning was evaluated using delay fear conditioning (DFC; see Methods) ([33]). Mice were cannulated to the CA1 region of the hippocampus and were microinjected with YB-537 (1 μL of 5 μM, Figure 4, D and H) or vehicle. […] In order to evaluate any possible effect of acute QR2i microinjection on metabolic stress in the mouse brain, ISR activation was measured by quantifying total and phosphorylated eukaryotic initiation factor 2 α (eIF2α) levels (Supplemental Figure 3A) and lipid peroxidation product, 4-hydroxynonenal (4-HNE; Supplemental Figure 3B), by immunoblot 3 hours after the injection. […]

[1] = Drinking rate during chronic ingestion; format: in vivo, mouse; set-up: Sup. Fig. 5-2B, drinking rate: unit: ml/g/day
Description: Supplementary Figure 6. Chronic Drinking of 50 mg/kg YB -537 for of 1 Month Causes no Changes
in General Mouse Physiology or Behavior but Improves Nesting Behavior Over Time.
(A) Weight of male and female, 8–9- month-old 5xFAD mice over the course of 25 days while consuming
(B) Drinking rate of water or YB-537 in the cages of the 5xFAD mice. […]

| SMILES | ROS levels (replicates) (QR2Δ HCT116 cells) | 4-HNE levels (4-HNE; 3 hours after microinjection in the mouse hippocampus) | Sup. Fig. 3B, immunoblot signal (4-HNE; individual animals) | average drinking rate ([1]; 5xFAD females) | average drinking rate ([1]; 5xFAD males) | Sup. Fig. 5-2B, drinking rate ([1]; Female) | Sup. Fig. 5-2B, drinking rate ([1]; Male) |
| --- | --- | --- | --- | --- | --- | --- | --- |
| Cc1ccc(-c2cn3cccc(C)c3n2)cc1S(=O)(=O)N1CCC(C)CC1 [YB-800] | 0.1657 and -0.09332 and -0.11 and 0.01889 and -0.0308 |  |  |  |  |  |  |
| Cc1ccc(-c2cn3cccc(C)c3n2)cc1S(=O)(=O)N1CCNCC1 [YB-537] |  | insignificant reduction | 1.944 and 1.965 and 2.545 and 1.185 and 0.887 and 2.092 and 2.161 | 0.170 ± 0.011 mL/g/day | 0.170 ± 0.035 mL/g/day | 0.159 and 0.182 | 0.207 and 0.135 |
